Results as given in US20100222437A1, “C[…]-PSYCHOTROPIC CANNABINOIDS FOR THE TREATMENT OF INFLAMMATORY DISEASES” (priority 2007, published 2010).
Where two headings read alike, the source gives them in different places.

How the values were obtained:
[1] = tested on: SW480 (Colon cancer) cells; assay: Calcein-AM cytotoxicity assay, SW480; conditions: SW480, 24 h, compound alone
Procedure: (§1) The cytotoxic effect of the Cannabigerol (CBG) and Cannabidiol (CBD) alone or in combination was investigated by the Calcein-AM assay. Briefly, AGS, SW480 and HTC116 cells were cultivated at a density of 1.0×10^4 cells/ml in 96-well plates, 200 μl cell suspension per well and cultured in DMEM containing 10% fetal calf serum. Cells were treated with or without CBD, CBG or a combination of both compounds for 24 h, after which the wells were washed and the cells incubated with Calcein-AM (1 μM) (Molecular Probes) for 30 min. Then the fluorescence of viable cells was detected in a microtitre plate reader (TECAN Genius Pro). The intensity of fluorescence was inversely proportional to cell death induced by the compounds.

IL-1β = IL-1β release by LPS-stimulated human monocytes (ELISA); type: cell-based; conditions: for release of IL-1β (IL-1) in LPS-stimulated monocytes: LPS 10 ng/ml, 24 h, rank order Denbinobin, CBD, CBG
Procedure: The inhibitory effect of CARMA-CBG extract on IL-1β release was studied in human peripheral mononuclear phagocytic cells. Monocytes from healthy human donors were prepared following a standardised protocol (Ficoll gradient preparation) using a completely endotoxin-free cultivation. Using 50 ml tubes, 25 ml Ficoll were loaded with 25 ml blood of buffy coats from healthy blood donors. The gradient was established by centrifugation at 1,800 r.p.m., 20° C. for 40 min by using slow acceleration and brakes. Peripheral blood mononuclear cells in the interphase were carefully removed and re-suspended in 50 ml pre-warmed phosphate buffered saline followed by centrifugation for 10 min at 1,600 r.p.m. and 20° C. The supernatant was discarded and the pellet washed in 50 ml PBS and centrifuged as described above. The pellet was then re-suspended in 50 ml RPMI-1640 low endotoxin-medium supplemented with 10% human serum (PAA). After counting the amount of cells in a particle counter, cells were seeded in 24-well plates for ELISA and incubated at 37° C./5% CO2. The medium and the non-adherent cells (lymphocytes) were removed and fresh RPMI-1640 medium containing 1% human serum was added. The monocytes were treated with LPS (10 ng/ml), in the absence or presence of increasing concentrations of CARMA-CBG extract dissolved in DMSO for 24 h. The production of the IL-1β was determined by ELISA. […] LPS-mediated activation in the absence of CARMA-CBG was arbitrarily set as 100% of IL-1β release (FIG. 5).
Monocytes were isolated from healthy human donors as indicated above, and then treated with LPS (10 ng/ml), in the absence or presence of either CBG, or CBD or Denbinobin, as indicated, dissolved in DMSO. The production of IL-1 was determined by ELISA, and mean values from two independent experiments are shown. Full LPS-mediated activation was arbitrarily set as 100%.
Monocytes from healthy human donors, were treated with LPS (10 ng/ml), in the absence or presence of either CBG, or CBD or Canflavin A or Denbinobin, combined as indicated. The production of IL-1 was determined by ELISA, and mean values from two independent experiments are shown.

NF-kB = assay: cells; type: cell-based; conditions: for % INHIBITON OF TNF-α-INDUCED NF-κB ACTIVATION: compound alone
[2] = tested on: AGS (gastric cancer) cells; assay: Calcein-AM cytotoxicity assay, AGS; conditions: 24 h, compound alone
Procedure: as §1

[3] = tested on: HCT-116 (Colon cancer) cells; assay: Calcein-AM cytotoxicity assay, HCT-116; conditions: HCT-116, 24 h, compound alone
Procedure: as §1

TNF-α = TNF-α release by LPS-stimulated human monocytes (ELISA); type: cell-based; conditions: for release of TNF-α in LPS-stimulated monocytes: LPS 10 ng/ml, 24 h, rank order Denbinobin, CBD, CBG
Procedure: The inhibitory effect of CARMA-CBG extract on TNF-α release was studied in human peripheral mononuclear phagocytic cells. Monocytes were isolated as in Example 6 and were treated with LPS (10 ng/ml), in the absence or presence of increasing concentrations of CARMA-CBG extract dissolved in DMSO for 24 h. The production of the TNFα was determined by ELISA. […] LPS-mediated activation in the absence of CARMA-CBG was arbitrarily set as 100% of TNF-α release (FIG. 6).
The production of TNF-α was determined by ELISA, on the supernatant of LPS-treated monocytes, as indicated above, in the absence or presence of either CBG, or CBD or Denbinobin, as indicated.
Monocytes from healthy human donors, were treated with LPS (10 ng/ml), in the absence or presence of either CBG, or CBD or Canflavin A or Denbinobin, combined as indicated. The production of TNF-α was determined by ELISA as indicated above.

prostaglandin E2 = conditions: cited from earlier work
colon cancer cell lines = conditions: cited from earlier work
leukaemia cell lines = conditions: cited from earlier work
HIV-1 = conditions: cited from earlier work
[4] = target: T1, CB1 receptors in intestine submucose neurons (Rattus norvegicus, UniProt P20272); conditions: by activating CB1 receptors; cited from earlier work
T1 construct: host or cells: intestine submucose neurons (in vivo)

intestinal inflammation = conditions: mice with induced IBD; cited from earlier work
[5] = Homo sapiens, Monocyte, compound alone, 20 μM, read-out: % INHIBITION OF LPS-INDUCED IL-1 PRODUCTION
[6] = Homo sapiens, Jurkat, read-out: % INHIBITON OF TNF-α-INDUCED NF-κB ACTIVATION
[7] = Homo sapiens, Monocyte, compound alone, 10 μM, read-out: % INHIBITION OF LPS-INDUCED TNF-α-PRODUCTION
[8] = Homo sapiens, Monocyte, compound alone, 20 μM, read-out: % INHIBITION OF LPS-INDUCED TNF-α-PRODUCTION

T1 sequence (P20272 whole entry): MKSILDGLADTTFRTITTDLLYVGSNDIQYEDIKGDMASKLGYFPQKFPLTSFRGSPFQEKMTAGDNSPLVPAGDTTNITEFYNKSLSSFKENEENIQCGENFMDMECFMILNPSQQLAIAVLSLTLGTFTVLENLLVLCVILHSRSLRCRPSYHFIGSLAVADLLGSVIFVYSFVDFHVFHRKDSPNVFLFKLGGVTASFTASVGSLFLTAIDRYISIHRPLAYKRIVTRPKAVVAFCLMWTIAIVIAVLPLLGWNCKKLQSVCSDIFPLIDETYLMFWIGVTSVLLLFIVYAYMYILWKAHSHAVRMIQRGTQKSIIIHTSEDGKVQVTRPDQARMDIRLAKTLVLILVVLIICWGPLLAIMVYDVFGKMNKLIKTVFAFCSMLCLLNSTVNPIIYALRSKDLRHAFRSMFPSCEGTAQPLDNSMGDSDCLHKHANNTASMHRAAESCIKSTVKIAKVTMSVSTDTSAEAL

| Compound | cytotoxicity (cell survival, Calcein-AM) [1] | release of IL-1β (IL-1) in LPS-stimulated monocytes (IL-1β) | cytotoxicity (cell survival, Calcein-AM) [2] | cytotoxicity (cell survival, Calcein-AM) [3] | release of TNF-α in LPS-stimulated monocytes (TNF-α) | inhibition at 20 µM (IL-1β; [5]) [%] | inhibition at 10 µM (NF-kB; [6]) [%] | inhibition at 20 µM (NF-kB; [6]) [%] | inhibition at 10 µM (TNF-α; [7]) [%] | inhibition at 20 µM (TNF-α; [8]) [%] | further results |
| --- | --- | --- | --- | --- | --- | --- | --- | --- | --- | --- | --- |
| C=C(C)[C@@H]1CCC(C)=C[C@H]1c1c(O)cc(CCCCC)cc1O [CBD, Cannabidiol] | induced cytotoxicity | significant concentration-dependent decrease | induced cytotoxicity | induced cytotoxicity | significant concentration-dependent decrease | – | – | – | – | – | % INHIBITION OF LPS-INDUCED IL-1 PRODUCTION (IL-1β; compound alone, 10 μM): 70.10%; % INHIBITION OF LPS-INDUCED IL-1 PRODUCTION (IL-1β; compound alone, 20 μM): 84.00%; % INHIBITON OF TNF-α-INDUCED NF-κB ACTIVATION (NF-kB; 10 μM): 14.43%; % INHIBITON OF TNF-α-INDUCED NF-κB ACTIVATION (NF-kB; 20 μM): 59.67%; % INHIBITION OF LPS-INDUCED TNF-α-PRODUCTION (TNF-α; compound alone, 10 μM): 33.30%; % INHIBITION OF LPS-INDUCED TNF-α-PRODUCTION (TNF-α; compound alone, 20 μM): 83.60% |
| CCCCCc1cc(O)c(C/C=C(\C)CCC=C(C)C)c(O)c1 [CBG, Cannabigerol] | induced cytotoxicity | significant concentration-dependent decrease | induced cytotoxicity | induced cytotoxicity | significant concentration-dependent decrease | 32.6 | 0 | 18.3 | 24.9 | 59.8 | inhibition at 10 µM (IL-1β; Homo sapiens, Monocyte, read-out: % INHIBITION OF LPS-INDUCED IL-1 PRODUCTION): 9.4% |
| COc1cc(-c2cc(=O)c3c(O)c(C/C=C(\C)CCC=C(C)C)c(O)cc3o2)ccc1O [Canflavin A] | – | – | – | – | – | 0 | 16.6 | 38.8 | 0 | 0 | inhibition at 10 µM (IL-1β; Homo sapiens, Monocyte, compound alone, 10 μM, read-out: % INHIBITION OF LPS-INDUCED IL-1 PRODUCTION): 0%; release of prostaglandin E2 (prostaglandin E2): can inhibit |
| COC1=CC(=O)c2ccc3cc(OC)cc(O)c3c2C1=O [Denbinobin] | – | significant concentration-dependent decrease | – | – | significant concentration-dependent decrease | – | – | – | – | – | anti-tumoral activity (colon cancer cell lines): anti-tumoral activities; anti-tumoral activity (leukaemia cell lines): anti-tumoral activities; inhibition at 1 µM (IL-1β; Homo sapiens, Monocyte, compound alone, 1 μM, read-out: % INHIBITION OF LPS-INDUCED IL-1 PRODUCTION): 37%; % INHIBITION OF LPS-INDUCED IL-1 PRODUCTION (IL-1β; compound alone, 2 μM00): 70.00%; inhibition at 1 µM (NF-kB; [6]): 44.9%; inhibition at 2 µM (NF-kB; [6]): 93.1%; HIV-1 replication in T cells (HIV-1): can inhibit; inhibition at 1 µM (TNF-α; Homo sapiens, Monocyte, compound alone, 1 μM, read-out: % INHIBITION OF LPS-INDUCED TNF-α-PRODUCTION): 32%; inhibition at 2 µM (TNF-α; Homo sapiens, Monocyte, compound alone, 2 μM, read-out: % INHIBITION OF LPS-INDUCED TNF-α-PRODUCTION): 64% |
| CCCCCc1cc(O)c2c(c1)OC(C)(C)[C@@H]1CCC(C)=C[C@@H]21 [THC, Δ-9-Tetrahydrocannabinoid] | – | – | – | – | – | – | – | – | – | – | gastrointestinal motility [4]: inhibits; intestinal inflammation (intestinal inflammation): reduces |
